Test results from patent US20200247897A1, “THERAPEUTIC ANTIBODIES BASED ON MUTATED IGG HEXAMERS” (GENMAB B.V., priority 2017, published 2020).
“Also recorded” adds a separate entry of the source.

Columns and labels:
[1] = system: HCT-15 human colon cancer cells; assay: Subcutaneous HCT-15 colon cancer xenograft model; format: in vivo, BALB/c nude mice; details: Example 30: 0.5, 2, 10 mg/kg i.v., twice Q7D
Protocol: The care and use of animals during the study were conducted in accordance with the regulations of the Association for Assessment and Accreditation of Laboratory Animal Care (AAALAC). Tumor volumes were measured twice weekly in two dimensions using a caliper, and the volume was expressed in mm^3 using the formula: V=0.5 a×b2 where a and b are the long and short diameters of the tumor, respectively.
The care and use of animals during the study were conducted in accordance with the regulations of the Association for Assessment and Accreditation of Laboratory Animal Care (AAALAC). Tumor volumes were measured twice weekly in two dimensions using a caliper, and the volume was expressed in mm^3 using the formula: V=0.5 a×b^2 where a and b are the long and short diameters of the tumor, respectively.

[2] = system: BxPC-3 pancreatic cancer cells; assay: 3-days CellTiter-Glo viability assay, BxPC-3
[3] = system: SW480 human colon cancer cells; assay: Subcutaneous SW480 colon cancer xenograft model; format: in vivo, NOD/SCID mice; details: 0.5, 2, 10 mg/kg i.v., twice Q7D
Protocol: 1×10^7 cells were injected in a volume of 200 μL PBS with Matrigel (1:1) into the flank of 6-8 weeks old female NOD/SCID mice (Beijing HFK Bioscience).

[4] = system: HCT-15 colon cancer cells; assay: 3-days CellTiter-Glo viability assay, HCT-15; details: 4 μg/mL
[5] = system: PANC-1 pancreatic cancer cells; assay: 3-days CellTiter-Glo viability assay, PANC-1; format: cell-based, human; details: 10 μg/mL
[6] = system: SK-MES-1 human lung cancer cells; assay: Subcutaneous SK-MES-1 lung cancer xenograft model; details: Example 33: 0.5, 2, 10 mg/kg i.v., twice Q7D
Protocol: The cells were maintained in vitro as a monolayer culture in MEM medium supplemented with 10% fetal bovine serum and 0.01 mM NEAA at 37° C. in an atmosphere of 5% CO2 in air. At day 0, adherent cells in an exponential growth phase were harvested by trypsin-EDTA treatment. 5×10^6 cells were injected in a volume of 100 μL PBS into the flank of 6-8 weeks old female BALB/c mice (Shanghai Laboratory Animal Center). Mouse handling and tumor volume measurements were performed as described in Example 30. Twenty-one days after tumor inoculation, the mean tumor size reached 161 mm^3 and mice were assigned into groups using randomized block design and treatments were started. Mice were treated twice according to a Q7D regimen by i.v. injection of 200 μg (10 mg/kg), 40 μg (2 mg/kg) or 10 μg (0.5 mg/kg) antibody in 10 μL PBS per g body weight. Mice in the control group were treated in parallel with 200 μg (10 mg/kg) IgG1-b12. After tumor inoculation, welfare of the animals was checked daily and tumor volumes were measured twice weekly.
Cell culturing, tumor cell inoculation, mice handling, tumor outgrowth measurements and endpoint determination were performed as described in Example 33.

[7] = system: COLO 205 human colon cancer cells; assay: Subcutaneous COLO 205 colon cancer xenograft model; format: in vivo, SCID mice
Protocol: The in vivo anti-tumor efficacy of different anti-DR5 antibodies and the combination of DR5-01+DR5-05 antibodies with hexamerization enhancing mutation was evaluated in a subcutaneous model with COLO 205 human colon cancer cells. At day 0, cells were harvested by pooling the culture supernatant containing non-adherent cells and trypsinized adherent cells. 3×10^6 cells were injected in a volume of 200 μL PBS into the flank of 6-11 weeks old female SCID mice (C.B-17/IcrHan®Hsd-Prkdc^scid; Harlan). All experiments and animal handlings were approved by the local authorities, and were conducted according to all applicable international, national and local laws and guidelines. Tumor development was monitored at least twice per week by caliper (PLEXX) measurement as 0.52×(length)×(width)^2. […] Mice were treated by intraperitoneal (i.p.) injection of 100 μg antibody in 200 μL PBS on day 6 and 13 (5 mg/kg per dose). To check for correct antibody administration, blood samples were obtained for IgG serum determination three days after the first dose. […] Tumors were measured until 16 weeks after tumor inoculation.
Mice were treated by intravenous (i.v.) injection of 40 μg (2 mg/kg), 10 μg (0.5 mg/kg) or 2 μg (0.1 mg/kg) antibody in 100 μL PBS on day 10. Mice in the control group were treated with 40 μg (2 mg/kg) IgG1-b12. Tumors were measured until 17 weeks after tumor inoculation.
At day 9, the average tumor volume was measured and the mice were sorted into groups with equal tumor size variance. Mice were treated by intravenous (i.v.) injection of 10 μg (0.5 mg/kg) antibody in 200 μL PBS on day 9. Mice in the control group were treated with 10 μg (0.5 mg/kg) IgG1-b12.

[8] = system: COLO 205 human colon cancer cells; assay: 3-days CellTiter-Glo viability assay, COLO 205; format: cell-based
Protocol: COLO 205 cells were harvested by pooling the culture supernatant containing non-adherent cells and trypsinized adherent cells. HCT 116 cells were harvested by trypsinization. […] In samples that were treated with a combination of two antibodies, the total antibody concentration in the assay was the same as in the samples that were treated with single antibodies. […] From the kit, 20 μL luciferin solution reagent was added per well and mixed by shaking the plate for 2 minutes at 500 rpm. Next, plates were incubated for 1.5 hours at 37° C. 100 μL supernatant was transferred to a white OptiPlate-96 (Perkin Elmer, Cat nr 6005299) and luminescence was measured on an EnVision Multilabel Reader (PerkinElmer). Data were analyzed and plotted using non-linear regression (sigmoidal dose-response with variable slope) using GraphPad Prism software.
The antibodies with and without the E430G mutation were tested as single agent and as combinations of the two non-crossblocking antibodies. COLO 205 cells were harvested as described in Example 8.

[9] = 10 μg/mL, F(ab')2 goat-anti-human IgG, listed as IgG1-DR5-CONA

IgG1-CONA: reference anti-DR5 antibody based on U.S. Pat. No. 7,521,048 B2 and WO2010/138725
tumor growth (mean tumor volume) [1]: did not | effect of secondary crosslinker on killing of BxPC-3 cells ([2]; 4 μg/mL): enhanced by the presence of a secondary crosslinker | killing of BxPC-3 cells in absence of Fc crosslinker ([2]; 10 μg/mL): did not induce target cell killing in the absence of an Fc crosslinker | killing of BxPC-3 cells in presence of Fc crosslinker [2, 9]: Fc crosslinking induced killing; also recorded: only induced killing in the presence of Fc crosslinker | tumor growth (mean tumor volume) versus IgG1-b12 [3]: only better than IgG1-b12 at the highest doses (10 mg/kg and 2 mg/kg p<0.01), but not at 0.5 mg/kg | effect of secondary crosslinker on killing of HCT15 cells [4]: enhanced by the presence of a secondary crosslinker | killing of PANC-1 cells in absence of Fc crosslinker [5]: did not induce target cell killing in the absence of an Fc crosslinker | tumor growth (mean tumor volume) versus IgG1-b12 [6]: only had a significant effect compared to IgG1-b12 at 10 mg/kg (p<0.01) and 2 mg/kg (p<0.05) but not at 0.5 mg/kg | tumor growth (mean tumor volume) ([7]; Example 26: 5 mg/kg i.p. on day 6 and 13): strongly inhibited tumor growth compared to IgG1-b12, but did not result in complete tumor abrogation | tumor growth progression versus IgG1-b12 (Kaplan-Meier, cutoff >500 mm^3) ([7]; Example 27: 0.5 mg/kg and 2 mg/kg): significantly inhibited tumor growth progression compared to the negative control antibody IgG1-b12 | tumor regression (mean tumor volume) ([7]; Example 27: single dose 0.5 mg/kg i.v. day 10): regression was incomplete with recurring tumor outgrowth in all mice | tumor regression (mean tumor volume) ([7]; Example 27: single dose 2 mg/kg i.v. day 10): almost all (7/8) mice | killing of COLO 205 cells in presence of Fc crosslinker [8, 9]: Fc crosslinking induced killing; also recorded: only induced killing in the presence of Fc crosslinker | killing of COLO 205 cells in absence of Fc crosslinker ([8]; 10 μg/mL, adherent cells): did not induce target cell killing in the absence of an Fc crosslinker | killing of adherent (attached) COLO 205 cells (% viable cells) ([8]; cells adhered overnight before adding antibody, dilution series): not able to kill attached COLO 205 colon cancer cells
